Assay results as given in ChEMBL document CHEMBL1139159, “Synthesis and anti-HIV-1 activities of novel podophyllotoxin derivatives” (Bioorg Med Chem Lett, 2007).

Assays:
C8166 = experiment: Cytotoxicity against C8166 cells assessed as reduction in total cell number; format: cell-based; conditions: Homo sapiens
[1] = system: Human immunodeficiency virus 1; experiment: Antiviral activity against HIV1 in C8166 cells assessed as inhibition of syncytia formation; format: functional, organism-based; conditions: Human immunodeficiency virus 1, C8166
[2] = Therapeutic index, IC50 for C8166 cells to EC50 for HIV1; format: cell-based; conditions: human, read-out: Ratio IC50/EC50

With COc1cc([C@@H]2c3cc4c(cc3[C@H](NC(=O)OC[C@@H]3C=C[C@H](n5cc(C)c(=O)[nH]c5=O)O3)[C@H]3COC(=O)[C@H]23)OCO4)cc(OC)c1O as the compound, how does the IC50 (C8166) read?
Its IC50 is 104 µM.

And the EC50 [1]?
The EC50 was 0.29 µM.

And the selectivity ratio [2]?
Its selectivity ratio is 355.

With COc1cc2c(cc1OC)[C@@H](C(=O)O)[C@H]1COC(=O)[C@@H]1[C@@H]2c1cc(OC)c(OC)c(OC)c1 as the compound, how does the IC50 (C8166) read?
The IC50 was > 437 µM.

And the EC50 [1]?
The EC50 was 46.9 µM.

And the selectivity ratio [2]?
The selectivity ratio was > 9.31.

What does the source list for COc1cc([C@@H]2c3cc4c(cc3[C@@H](NC(=O)OC[C@@H]3C=C[C@H](n5cc(C)c(=O)[nH]c5=O)O3)[C@H]3COC(=O)[C@H]23)OCO4)cc(OC)c1O?
IC50 (C8166): 79.1 µM; EC50 [1]: 0.17 µM; selectivity ratio [2]: 467

With COc1cc([C@@H]2c3cc4c(cc3[C@@H](NC(=O)OC[C@@H]3C=C[C@H](n5cc(C)c(=O)[nH]c5=O)O3)[C@H]3COC(=O)[C@H]23)OCO4)cc(OC)c1OC as the compound, how does the IC50 (C8166) read?
The IC50 was 68.2 µM.

And the EC50 [1]?
Its EC50 is 5.46 µM.

What about the selectivity ratio [2] of the same compound?
Its selectivity ratio is 12.5.

Which IC50 (C8166) does the source give for COc1cc2c(cc1OC)[C@@H](C#N)[C@H]1COC(=O)[C@@H]1[C@@H]2c1cc(OC)c(OC)c(OC)c1 here?
Its IC50 is 138 µM.

What about the EC50 [1] of the same compound?
Its EC50 is 1.05 µM.

What about the selectivity ratio [2] of the same compound?
Its selectivity ratio is 131.

With Cc1cn([C@H]2C[C@H](N=[N+]=N)[C@@H](CO)O2)c(=O)[nH]c1=O as the compound, how does the IC50 (C8166) read?
The IC50 was 500 µM.

And the EC50 [1]?
The EC50 was 0.009 µM.

What about the selectivity ratio [2] of the same compound?
Its selectivity ratio is 55600.

What does the source list for COc1cc2c(cc1OC)[C@@H](NC(=O)OC[C@@H]1C=C[C@H](n3cc(C)c(=O)[nH]c3=O)O1)[C@H]1COC(=O)[C@@H]1[C@@H]2c1cc(OC)c(OC)c(OC)c1?
IC50 (C8166): > 295 µM; EC50 [1]: 4.39 µM; selectivity ratio [2]: > 67.1

Which IC50 (C8166) does the source give for COc1cc([C@@H]2c3cc4c(cc3[C@H](NC(=O)OC[C@@H]3C=C[C@H](n5cc(C)c(=O)[nH]c5=O)O3)[C@H]3COC(=O)[C@H]23)OCO4)cc(OC)c1OC here?
Its IC50 is 3.39 µM.

What about the EC50 [1] of the same compound?
Its EC50 is 0.24 µM.

And the selectivity ratio [2]?
The selectivity ratio was 14.4.

What does the source list for COc1cc([C@@H]2c3cc4c(cc3[C@H](O)[C@H]3COC(=O)[C@H]23)OCO4)cc(OC)c1OC [PODOFILOX]?
IC50 (C8166): < 0.15 µM; EC50 [1]: 0.0029 µM; selectivity ratio [2]: 53.3
